The nature of this data set: Dissolution of domperidone co-processed with an organic acid (developmental studies). Format: physicochemical. Conditions: alkaline pH conditions encountered in the gastro-intestinal tract. An excerpt: According to a preferred embodiment of the invention, domperidone is co-processed with an organic acid in the ratio of from about 1:0.25 to about 0.25:1, preferably from about 1:0.5 to about 0.5:1, most preferably about 1:1. The co-processing may be aided by dissolving the two ingredients with the help of heat followed by cooling, when the dissolved material separates out. The material separated out may be removed and dried. The co-processed material may be incorporated into dosage forms such as tablets, which may further be combined with enteric coated tablets of proton pump inhibitor and an immediate release tablet of domperidone, in a hard gelatin capsule.

As to `O=c1[nH]c2ccccc2n1CCCN1CCC(n2c(=O)[nH]c3cc(Cl)ccc32)CC1` [domperidone], the dissolution entry is listed as “improved dissolution”.

These data come from patent publication US20070160664A1, “Pharmaceutical compositions comprising of proton pump inhibitor and prokinetic agent” (PANACEA BIOTEC LIMITED, priority 2004, published 2007).
